Like-named read-outs stand apart in the source and are kept apart here.
Columns and labels:
[1] = target: CDK7/cyclin H (Homo sapiens, UniProt P50613); assay: KinaseProfile radiometric protein kinase assay, CDK7/cyclin H; type: biochemical
Experimental: (§1) The KinaseProfile radiometric protein kinase assay was used to evaluate the inhibitory activity of the compounds against CDK2/cyclin E, CDK4/cyclin D, CDK6/cyclin D, CDK7/cyclin H and CDK9/cyclin T.
(§2) The compounds were prepared in 100% DMSO at a final 50× stock concentration. The working stock solution was added as the first component to the assay wells. CDK2/cyclin E, CDK4/cyclin D, CDK6/cyclin D, CDK7/cyclin H, and CDK9/cyclin T were added in their respective kinase buffers: (CDK4: 8 mM MOPS pH 7.0, 0.2 mM EDTA, 0.03% BSA, 0.03% Tween 20, 20 mM DTT, and 0.2 mg/ml Rb fragment, 10 mM Magnesium acetate; CDK2, CDK6: 8 mM MOPS pH 7.0, 0.2 mM EDTA, 0.1 mg/mL histone H1, 10 mM Magnesium acetate; CDK7: 8 mM MOPS pH 7.0, 0.2 mM EDTA, 500 μM peptide, 10 mM Magnesium acetate; CDK9: 8 mM MOPS pH 7.0, 0.2 mM EDTA, 100 μM […], 10 mM Magnesium acetate) and [γ-^33 P-ATP] was included in the reaction mixture. The reaction was initiated by the addition of the Mg/ATP mixture and incubated at room temperature for 40 minutes. The reaction was terminated by the addition of 0.5% phosphoric acid. Then, 10 μL of the reaction mixture was spotted onto P30 filter pads, washed four times (1 minute each) with 0.425% phosphoric acid, followed by a single wash with methanol. The pads were then dried and counted. The data were recorded, inhibition rates were calculated, and IC50 values were determined accordingly. Table 2 summarizes the in vitro enzymatic inhibitory activity of the compounds of the present application.

[2] = test system: Human colorectal cancer COLO205 cells; assay: Cell apoptosis assay (Caspase-Glo 3/7), 5-FU-induced apoptosis; type: cell-based
Experimental: The Caspase-Glo® 3/7 assay was employed to evaluate the protective effect of the compounds of the present invention against 5-fluorouracil (5-FU)-induced apoptosis. Human colorectal cancer COLO205 cells were cultured in RPMI 1640 medium (Invitrogen) in an incubator at 37° C. with 5% CO2.
COLO205 cells were seeded in 96-well plates at a density of 4,000 cells per well and incubated overnight. On the following day, serially diluted concentrations of Compound 1 were added to the wells and incubated for 16 hours. Afterward, 5-FU was added and the cells were incubated for an additional 48 hours. Subsequently, Caspase-Glo® 3/7 reagent (100 μL) was added to each well. The cells were mixed on an orbital shaker for 10 min and incubated at room temperature for 2 h. After an additional 10-minute incubation, the plate was measured using the Envision instrument and the data was processed. Relief rate (%)=(5-FU group−CDK group)/5-FU group×100%.

[3] = target: CDK4/cyclin D (Homo sapiens, UniProt P11802); assay: KinaseProfile radiometric protein kinase assay, CDK4/cyclin D; type: biochemical
Experimental: as §1, §2

[4] = target: CDK2/cyclin E (Homo sapiens, UniProt P24941); assay: KinaseProfile radiometric protein kinase assay, CDK2/cyclin E; type: biochemical
Experimental: as §1, §2

[5] = target: CDK9/cyclin T (Homo sapiens, UniProt P50750); assay: KinaseProfile radiometric protein kinase assay, CDK9/cyclin T; type: biochemical
Experimental: as §1, §2

[6] = target: CDK6/cyclin D (Homo sapiens, UniProt Q00534); assay: KinaseProfile radiometric protein kinase assay, CDK6/cyclin D; type: biochemical
Experimental: as §1, §2

[7] = test system: 5-FU-induced diarrhea model; assay: 5-FU-induced diarrhea model, 5-FU 3-day model; type: in vivo, Balb/c mice; settings: 5-FU 60 mg/kg once a day for 3 days, mice
Experimental: The 5-FU-induced diarrhea model was used as an experimental model of the present invention to evaluate the in vivo activity of the compounds.
Balb/c mice (20-25 g, 7-8 weeks old, Jihui) were acclimated for one week and then randomly assigned to 3 groups (n=10 per group): control group, 5-FU group, and CDK inhibitor group. […] […] […] From Day 1 to Day 7, diarrhea severity was assessed daily for each mouse according to the diarrhea scoring system.
The diarrhea scoring system was based on the method by Akinobu Kurita (Cancer Chemother Pharmacol 2000; 46:211-20), Grade 0: normal stool; Grade 1: mild diarrhea, slightly soft stool and wet stool; Grade 2: moderate diarrhea, loose stool with slight perianal staining; Grade 3: severe diarrhea, loose watery stool with severe perianal staining.
The diarrhea relief rate (%) was calculated as follows: […]

[8] = Intestinal tissue distribution study following a single oral administration in rats; type: in vivo, Sprague Dawley rats; settings: male rats, single oral 25 mg/kg; for Kp: read-out: Tissue-to-plasma concentration ratio
Experimental: Nine male Sprague Dawley rats were orally administered Compound 1 at a dose of 25 mg/kg with a dosing volume of 10 mL/kg using purified water as the vehicle. At 0.25, 2, and 6 hours post-dosing, three animals were euthanized at each time point. A 200 μL whole blood sample was collected via cardiac puncture and plasma was separated by centrifugation.
The duodenum, jejunum, ileum, and colon were collected, contents removed, rinsed with ice-cold water, and surface moisture was blotted with filter paper before weighing. For each gram of tissue, 5 mL of methanol-water (1:3, v/v) was added for homogenization. The drug concentrations in plasma and intestinal tissue homogenates of each intestinal segment tissue were measured using LC-MS/MS.

[9] = 10 mg/kg oral twice a day for 3.5 days
[10] = 25 mg/kg oral twice a day for 3 days
[11] = 50 mg/kg oral twice a day for 3 days
[12] = 100 mg/kg oral twice a day for 3 days
[13] = 100 mg/kg oral twice a day for 3.5 days
[14] = 10 mg/kg oral twice a day for 3 days
[15] = 25 mg/kg oral twice a day for 3.5 days
[16] = 50 mg/kg oral twice a day for 4 days

Sequence of CDK4/cyclin D (P11802 whole entry): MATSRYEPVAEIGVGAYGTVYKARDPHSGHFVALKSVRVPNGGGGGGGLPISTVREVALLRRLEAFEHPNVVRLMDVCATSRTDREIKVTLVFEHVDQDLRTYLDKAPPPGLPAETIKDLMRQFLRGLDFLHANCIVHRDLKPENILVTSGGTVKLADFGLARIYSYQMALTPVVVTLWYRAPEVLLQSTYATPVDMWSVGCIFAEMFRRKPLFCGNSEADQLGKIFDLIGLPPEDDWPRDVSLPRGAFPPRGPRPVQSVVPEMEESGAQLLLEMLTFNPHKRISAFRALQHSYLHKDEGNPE
Sequence of CDK4/cyclin D (P30281 whole entry partner): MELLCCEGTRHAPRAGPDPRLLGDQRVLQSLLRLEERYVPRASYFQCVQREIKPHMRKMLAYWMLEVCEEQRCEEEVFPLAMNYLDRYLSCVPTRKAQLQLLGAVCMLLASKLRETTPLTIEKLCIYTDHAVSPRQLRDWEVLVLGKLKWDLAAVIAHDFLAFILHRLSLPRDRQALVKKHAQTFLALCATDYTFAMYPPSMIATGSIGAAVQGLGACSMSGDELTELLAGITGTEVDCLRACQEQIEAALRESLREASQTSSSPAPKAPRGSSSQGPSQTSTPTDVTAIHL
Sequence of CDK7/cyclin H (P50613 whole entry): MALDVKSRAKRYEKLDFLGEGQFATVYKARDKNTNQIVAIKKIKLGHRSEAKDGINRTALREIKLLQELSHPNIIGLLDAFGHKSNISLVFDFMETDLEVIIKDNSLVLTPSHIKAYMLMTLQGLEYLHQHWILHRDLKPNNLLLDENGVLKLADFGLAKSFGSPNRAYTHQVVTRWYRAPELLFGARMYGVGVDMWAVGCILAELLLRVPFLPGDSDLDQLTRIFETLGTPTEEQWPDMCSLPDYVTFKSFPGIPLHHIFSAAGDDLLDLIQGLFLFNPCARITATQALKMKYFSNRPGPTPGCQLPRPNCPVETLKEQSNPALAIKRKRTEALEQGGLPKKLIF
Sequence of CDK7/cyclin H (P51946 whole entry partner): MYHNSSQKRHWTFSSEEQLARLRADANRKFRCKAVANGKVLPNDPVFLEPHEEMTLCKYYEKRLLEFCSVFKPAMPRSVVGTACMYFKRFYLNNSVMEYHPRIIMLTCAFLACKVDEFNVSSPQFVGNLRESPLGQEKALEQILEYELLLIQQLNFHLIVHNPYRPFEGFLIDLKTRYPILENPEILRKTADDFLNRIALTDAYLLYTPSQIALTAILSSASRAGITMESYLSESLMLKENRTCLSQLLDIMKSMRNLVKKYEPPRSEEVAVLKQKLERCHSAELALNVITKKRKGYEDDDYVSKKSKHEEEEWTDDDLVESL
Sequence of CDK7/cyclin H (P51948 whole entry partner): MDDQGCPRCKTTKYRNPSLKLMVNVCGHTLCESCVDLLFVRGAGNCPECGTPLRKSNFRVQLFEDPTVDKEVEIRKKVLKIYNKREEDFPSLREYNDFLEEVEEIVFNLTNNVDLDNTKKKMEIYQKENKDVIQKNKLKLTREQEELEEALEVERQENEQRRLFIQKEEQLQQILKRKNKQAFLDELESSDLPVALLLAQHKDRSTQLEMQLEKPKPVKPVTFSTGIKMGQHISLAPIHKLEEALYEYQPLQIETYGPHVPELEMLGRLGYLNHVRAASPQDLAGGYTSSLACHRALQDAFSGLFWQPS
Sequence of CDK6/cyclin D (Q00534 whole entry): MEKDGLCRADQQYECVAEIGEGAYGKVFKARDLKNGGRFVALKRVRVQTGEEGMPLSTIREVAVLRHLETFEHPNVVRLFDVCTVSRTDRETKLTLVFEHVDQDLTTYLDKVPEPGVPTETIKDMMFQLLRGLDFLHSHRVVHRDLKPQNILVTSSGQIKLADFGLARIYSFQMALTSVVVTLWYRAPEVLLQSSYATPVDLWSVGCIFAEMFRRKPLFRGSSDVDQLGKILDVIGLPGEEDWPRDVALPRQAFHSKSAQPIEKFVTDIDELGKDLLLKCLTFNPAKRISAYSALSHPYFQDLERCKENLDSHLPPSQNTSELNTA
Sequence of CDK6/cyclin D (P30281 whole entry partner): as the sequence (P30281 whole entry partner) above
Sequence of CDK9/cyclin T (P50750 whole entry): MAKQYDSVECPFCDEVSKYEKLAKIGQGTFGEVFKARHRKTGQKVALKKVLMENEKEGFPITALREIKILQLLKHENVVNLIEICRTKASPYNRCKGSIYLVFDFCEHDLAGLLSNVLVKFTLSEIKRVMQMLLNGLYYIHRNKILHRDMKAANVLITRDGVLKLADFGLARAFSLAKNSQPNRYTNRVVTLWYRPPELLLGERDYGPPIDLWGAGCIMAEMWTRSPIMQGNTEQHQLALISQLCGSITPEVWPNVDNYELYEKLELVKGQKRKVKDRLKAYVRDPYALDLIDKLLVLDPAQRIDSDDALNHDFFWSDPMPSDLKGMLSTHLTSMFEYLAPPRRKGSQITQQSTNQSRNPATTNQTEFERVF
Sequence of CDK9/cyclin T (O60563 whole entry partner): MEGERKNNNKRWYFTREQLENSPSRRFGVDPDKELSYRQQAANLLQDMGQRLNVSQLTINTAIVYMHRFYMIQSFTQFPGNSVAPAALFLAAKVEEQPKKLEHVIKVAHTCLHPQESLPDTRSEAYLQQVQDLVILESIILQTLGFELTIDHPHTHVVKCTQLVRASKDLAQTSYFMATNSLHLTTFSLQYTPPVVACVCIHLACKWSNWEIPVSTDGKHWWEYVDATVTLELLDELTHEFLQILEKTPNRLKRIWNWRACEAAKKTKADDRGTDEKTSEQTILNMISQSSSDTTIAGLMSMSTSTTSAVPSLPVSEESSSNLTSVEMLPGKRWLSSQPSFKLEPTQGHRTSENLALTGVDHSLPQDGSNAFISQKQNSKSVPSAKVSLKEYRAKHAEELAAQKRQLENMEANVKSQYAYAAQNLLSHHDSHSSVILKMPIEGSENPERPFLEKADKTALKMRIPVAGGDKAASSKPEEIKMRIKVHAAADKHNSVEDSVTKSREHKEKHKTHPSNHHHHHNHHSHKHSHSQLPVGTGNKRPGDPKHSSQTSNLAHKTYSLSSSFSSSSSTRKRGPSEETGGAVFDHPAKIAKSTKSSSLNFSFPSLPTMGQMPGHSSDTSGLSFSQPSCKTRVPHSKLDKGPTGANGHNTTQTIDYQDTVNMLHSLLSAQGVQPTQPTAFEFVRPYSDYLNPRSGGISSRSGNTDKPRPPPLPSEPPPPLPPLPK

| IC50 [1] | IC50 [3] | IC50 [4] | IC50 [5] | IC50 [6] | Structure (SMILES) | Relief rate of 5-FU -induced cell apoptosis ([2]; concentration 0.1 μM) | Relief rate of 5-FU -induced cell apoptosis ([2]; concentration 1 μM) | Relief rate of 5-FU -induced cell apoptosis ([2]; concentration 5 μM) | Relief rate of 5-FU -induced cell apoptosis ([2]; concentration 25 μM) | diarrhea relief rate [7, 9] | diarrhea relief rate [7, 10] | diarrhea relief rate [7, 11] | diarrhea relief rate [7, 12] | diarrhea relief rate [7, 13] | Relief rate of 5-FU -induced cell apoptosis ([2]; concentration 10 μM) | Relief rate of 5-FU -induced cell apoptosis ([2]; concentration 50 μM) | diarrhea relief rate [7, 14] | diarrhea relief rate [7, 15] | diarrhea relief rate [7, 16] | Relief rate of 5-FU -induced cell apoptosis ([2]; concentration 100 μM) | other results |
| --- | --- | --- | --- | --- | --- | --- | --- | --- | --- | --- | --- | --- | --- | --- | --- | --- | --- | --- | --- | --- | --- |
| > 3 µM | < 0.05 µM | > 10 µM | > 1 µM | < 0.05 µM | CC(=O)c1c(C)c2cnc(Nc3ccc(N4CCN(S(=O)(=O)NCC(C)(C)N)CC4)cn3)nc2n(C2CCCC2)c1=O [Compound 2] |  | 40% | 50% |  |  | 40% | 60% |  | 50% | 70% | 40% | 25% | 50% | 40% |  |  |
| > 10 µM | < 0.05 µM | > 10 µM | > 3 µM | < 0.1 µM | CC(=O)c1c(C)c2cnc(Nc3ccc(N4CCN(S(=O)(=O)NCC(C)N)CC4)cn3)nc2n(C2CCCC2)c1=O (stereo not drawn) [Compound 3] | 20% | 40% | 40% | 30% | 40% |  | 40% | 70% |  |  |  | 30% |  |  |  | diarrhea relief rate ([7]; 5 mg/kg oral twice a day for 4 days): 25%; diarrhea relief rate ([7]; 50 mg/kg oral twice a day for 3.5 days): 40% |
| > 3 µM | < 0.05 µM | > 3 µM | > 3 µM | < 0.05 µM | CC(=O)c1c(C)c2cnc(Nc3ccc(N4CCN(S(=O)(=O)NCCCN)CC4)cn3)nc2n(C2CCCC2)c1=O [Compound 4] |  |  |  | 50% | 50% |  | 60% | 40% |  | 40% | 50% |  | 55% |  | 30% | diarrhea relief rate ([7]; 5 mg/kg oral twice a day for 3 days): 30%; diarrhea relief rate ([7]; 10 mg/kg oral twice a day for 4 days): 40% |
| > 10 µM | < 0.1 µM | > 3 µM | > 3 µM | < 0.05 µM | CC(=O)c1c(C)c2cnc(Nc3ccc(N4CCN(S(=O)(=O)NCC(C)CN)CC4)cn3)nc2n(C2CCCC2)c1=O (stereo not drawn) [Compound 5] |  |  | 50% |  | 75% |  | 40% | 50% |  |  | 40% | 40% |  |  | 30% | Relief rate of 5-FU -induced cell apoptosis ([2]; concentration 0.5 μM): 10%; diarrhea relief rate ([7]; 30 mg/kg oral twice a day for 4 days): 30%; diarrhea relief rate ([7]; 60 mg/kg oral twice a day for 3.5 days): 50% |
| > 3 µM | < 0.05 µM | > 10 µM | > 1 µM | < 0.1 µM | CC(=O)c1c(C)c2cnc(Nc3ccc(N4CCN(S(=O)(=O)NCC(C)(C)CN)CC4)cn3)nc2n(C2CCCC2)c1=O [Compound 6] | 20% | 40% | 60% | 70% |  |  |  | 60% |  |  |  | 30% |  | 75% |  | diarrhea relief rate ([7]; 20 mg/kg oral twice a day for 3.5 days): 50%; diarrhea relief rate ([7]; 30 mg/kg oral twice a day for 3 days): 50%; diarrhea relief rate ([7]; 80 mg/kg oral twice a day for 3.5 days): 60% |

| Structure (SMILES) | IC50 [1] | IC50 [3] | IC50 [4] | IC50 [5] | IC50 [6] | Relief rate of 5-FU -induced cell apoptosis ([2]; concentration 0.1 μM) | Relief rate of 5-FU -induced cell apoptosis ([2]; concentration 1 μM) | Relief rate of 5-FU -induced cell apoptosis ([2]; concentration 5 μM) | Relief rate of 5-FU -induced cell apoptosis ([2]; concentration 25 μM) | diarrhea relief rate [7, 9] | diarrhea relief rate [7, 10] | diarrhea relief rate [7, 11] | diarrhea relief rate [7, 12] | diarrhea relief rate [7, 13] | Relief rate of 5-FU -induced cell apoptosis ([2]; concentration 10 μM) | Relief rate of 5-FU -induced cell apoptosis ([2]; concentration 50 μM) | diarrhea relief rate [7, 14] | diarrhea relief rate [7, 15] | diarrhea relief rate [7, 16] | Relief rate of 5-FU -induced cell apoptosis ([2]; concentration 100 μM) | other results |
| --- | --- | --- | --- | --- | --- | --- | --- | --- | --- | --- | --- | --- | --- | --- | --- | --- | --- | --- | --- | --- | --- |
| CC(=O)c1c(C)c2c(n(C3CCCC3)c1=O)=NC(Nc1ccc(N3CCN(S(=O)(=O)NCCN)CC3)cn1)NC=2 (stereo not drawn) [Compound 1] | > 10 µM | < 0.05 µM | > 10 µM | > 1 µM | < 0.05 µM | 30% | 60% | 80% | 40% | 40% | 60% | 40% | 50% | 40% |  |  |  |  |  |  | diarrhea relief rate ([7]; 75 mg/kg oral twice a day for 4 days): 55%; Kp ([8]; Sprague Dawley, rat, Colon, ratio of AUC values): 502; Kp ([8]; Sprague Dawley, rat, Ileum, ratio of AUC values): 4750; Kp ([8]; Sprague Dawley, rat, Jejunum, ratio of AUC values): 4300; AUC(0-t) ([8]; Sprague Dawley, rat, Plasma, read-out: AUC0-t): 1.26 ng·h/mL; AUC(0-t) ([8]; Colon): 632 ng·h/g; AUC(0-t) ([8]; Duodenum): 19300 ng·h/g; Tissue-to-plasma concentration ratio ([8]; Duodenum, ratio of AUC values): 15300; AUC(0-t) ([8]; Ileum): 5980 ng·h/g; AUC(0-t) ([8]; Jejunum): 5420 ng·h/g |
